The supplement of paper PMC4862054

Columns and labels:
Assay in all cases: normalised response (% of control), CellTox Green; higher = less cell death (100 = DMSO, 0 = benzethonium chloride kill control)
Conditions in all cases: incubation time: 72 h
MFM-223 = test system: MFM-223
Procedure, shortened: (§1)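 Breast cancer cell lines (20 µl suspension) were seeded into 384-well plates holding compound at 5 concentrations in 10-fold steps over a compound-specific 10,000-fold range, then incubated 72 h. CellTox Green fluorescence (485/520 nm) was read first, then CellTiter-Glo luminescence after 10 min at room temperature. Each plate was normalised to 0.1 % DMSO (100) and a positive kill control (0). Each value is the normalised signal at a single concentration of the series.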

MDA-MB-436 = test system: MDA-MB-436
Procedure, shortened: as §1

CAL-85-1 = test system: CAL-85-1
Procedure, shortened: as §1

BT-474 = test system: BT-474
Procedure, shortened: as §1

DU-4475 = test system: DU-4475
Procedure, shortened: as §1

MCF-10A = test system: MCF-10A
Procedure, shortened: as §1

MDA-MB-231 = test system: MDA-MB-231
Procedure, shortened: as §1

HCC1599 = test system: HCC1599
Procedure, shortened: as §1

BT-549 = test system: BT-549
Procedure, shortened: as §1

CAL-51 = test system: CAL-51
Procedure, shortened: as §1

HDQ-P1 = test system: HDQ-P1
Procedure, shortened: as §1

MDA-MB-453 = test system: MDA-MB-453
Procedure, shortened: as §1

CAL-148 = test system: CAL-148
Procedure, shortened: as §1

CAL-120 = test system: CAL-120
Procedure, shortened: as §1

MDA-MB-468 = test system: MDA-MB-468
Procedure, shortened: as §1

Hs578T = test system: Hs578T
Procedure, shortened: as §1

HCC1143 = test system: HCC1143
Procedure, shortened: as §1

HCC1937 = test system: HCC1937
Procedure, shortened: as §1

Structure (SMILES): CN(C)C/C=C/C(=O)Nc1cc2c(Nc3ccc(F)c(Cl)c3)ncnc2cc1O[C@H]1CCOC1 [Afatinib] (1000 nM)
- normalised response (MFM-223): 99.8%
- normalised response (MDA-MB-436): 102%
- normalised response (CAL-85-1): 66.4%
- normalised response (BT-474): 52.4%
- normalised response (DU-4475): 106%
- normalised response (MCF-10A): 99.6%
- normalised response (MDA-MB-231): 117%
- normalised response (HCC1599): 104%
- normalised response (BT-549): 107%
- normalised response (CAL-51): 106%
- normalised response (HDQ-P1): 93.8%
- normalised response (MDA-MB-453): 97.1%
- normalised response (CAL-148): 94.1%
- normalised response (CAL-120): 94.1%
- normalised response (MDA-MB-468): 110%

Structure (SMILES): N#CC[C@H](C1CCCC1)n1cc(-c2ncnc3[nH]ccc23)cn1 [Ruxolitinib] (1000 nM)
- normalised response (MFM-223): 96.2%
- normalised response (MDA-MB-436): 96.2%
- normalised response (CAL-85-1): 108%
- normalised response (BT-474): 100%
- normalised response (DU-4475): 95.8%
- normalised response (MDA-MB-231): 107%
- normalised response (HCC1599): 95.2%
- normalised response (Hs578T): 83.8%
- normalised response (BT-549): 127%
- normalised response (CAL-51): 111%
- normalised response (HDQ-P1): 86.3%
- normalised response (MDA-MB-453): 102%
- normalised response (CAL-148): 104%
- normalised response (HCC1143): 102%
- normalised response (CAL-120): 96.5%
- normalised response (MDA-MB-468): 119%

Structure (SMILES): COc1cccc2c1C(=O)c1c(O)c3c(c(O)c1C2=O)C[C@@](O)(C(=O)CO)C[C@@H]3O[C@H]1C[C@H](N)[C@H](O)[C@H](C)O1 [Doxorubicin] (100 nM)
- normalised response (MFM-223): 86.3%
- normalised response (MDA-MB-436): 95.2%
- normalised response (CAL-85-1): 96.4%
- normalised response (BT-474): 105%
- normalised response (DU-4475): 96.4%
- normalised response (MCF-10A): 115%
- normalised response (MDA-MB-231): 111%
- normalised response (HCC1599): 100%
- normalised response (Hs578T): 103%
- normalised response (HCC1937): 134%
- normalised response (BT-549): 160%
- normalised response (CAL-51): 43.3%
- normalised response (HDQ-P1): 78.6%
- normalised response (MDA-MB-453): 109%
- normalised response (CAL-148): 81.4%
- normalised response (CAL-120): 100%
- normalised response (MDA-MB-468): 151%

Structure (SMILES): C=CC[C@@H]1/C=C(\C)C[C@H](C)C[C@H](OC)[C@H]2O[C@@](O)(C(=O)C(=O)N3CCCC[C@H]3C(=O)O[C@H](/C(C)=C/[C@@H]3CC[C@@H](O)[C@H](OC)C3)[C@H](C)[C@@H](O)CC1=O)[C@H](C)C[C@@H]2OC [Tacrolimus] (10000 nM)
- normalised response (MFM-223): 98.3%
- normalised response (MDA-MB-436): 92.5%
- normalised response (CAL-85-1): 92.3%
- normalised response (BT-474): 101%
- normalised response (DU-4475): 99.8%
- normalised response (MCF-10A): 70.6%
- normalised response (HCC1599): 100%
- normalised response (Hs578T): 112%
- normalised response (HCC1937): 93.6%
- normalised response (BT-549): 103%
- normalised response (CAL-51): 97.9%
- normalised response (HDQ-P1): 88.2%
- normalised response (MDA-MB-453): 100%
- normalised response (CAL-148): 95.8%
- normalised response (HCC1143): 91.2%
- normalised response (CAL-120): 97.6%
- normalised response (MDA-MB-468): 52.5%

Structure (SMILES): Nc1nc(Cl)nc2c1ncn2[C@H]1C[C@H](O)[C@@H](CO)O1 [Cladribine] (1000 nM)
- normalised response (MFM-223): 74.4%
- normalised response (MDA-MB-436): 85.4%
- normalised response (CAL-85-1): 83.4%
- normalised response (BT-474): 102%
- normalised response (DU-4475): 100%
- normalised response (MCF-10A): 100%
- normalised response (MDA-MB-231): 86.3%
- normalised response (HCC1599): 96%
- normalised response (Hs578T): 111%
- normalised response (HCC1937): 92.2%
- normalised response (BT-549): 86.3%
- normalised response (CAL-51): 107%
- normalised response (HDQ-P1): 95.9%
- normalised response (MDA-MB-453): 101%
- normalised response (CAL-148): 73.7%
- normalised response (CAL-120): 101%
- normalised response (MDA-MB-468): 50.6%

Structure (SMILES): C=CC[C@@H]1/C=C(\C)C[C@H](C)C[C@H](OC)[C@H]2O[C@@](O)(C(=O)C(=O)N3CCCC[C@H]3C(=O)O[C@H](/C(C)=C/[C@@H]3CC[C@@H](O)[C@H](OC)C3)[C@H](C)[C@@H](O)CC1=O)[C@H](C)C[C@@H]2OC [Tacrolimus] (1000 nM)
- normalised response (MDA-MB-436): 89.6%
- normalised response (CAL-85-1): 96.3%
- normalised response (BT-474): 99.5%
- normalised response (DU-4475): 100%
- normalised response (MCF-10A): 108%
- normalised response (MDA-MB-231): 108%
- normalised response (HCC1599): 90.2%
- normalised response (HCC1937): 97.2%
- normalised response (BT-549): 116%
- normalised response (CAL-51): 110%
- normalised response (MDA-MB-453): 106%
- normalised response (CAL-148): 104%
- normalised response (HCC1143): 102%
- normalised response (CAL-120): 99.5%
- normalised response (MDA-MB-468): 130%

Structure (SMILES): Nc1nc(Cl)nc2c1ncn2[C@H]1C[C@H](O)[C@@H](CO)O1 [Cladribine] (100 nM)
- normalised response (MFM-223): 78.7%
- normalised response (MDA-MB-436): 73.8%
- normalised response (CAL-85-1): 104%
- normalised response (BT-474): 99.7%
- normalised response (DU-4475): 103%
- normalised response (HCC1599): 98.3%
- normalised response (Hs578T): 98%
- normalised response (HCC1937): 85.4%
- normalised response (BT-549): 127%
- normalised response (CAL-51): 109%
- normalised response (HDQ-P1): 110%
- normalised response (MDA-MB-453): 108%
- normalised response (CAL-148): 95.7%
- normalised response (HCC1143): 119%
- normalised response (CAL-120): 101%
- normalised response (MDA-MB-468): 72.2%

Structure (SMILES): COc1cccc2cc(-c3nc([C@H]4CC[C@H](C(=O)O)CC4)n4ncnc(N)c34)[nH]c12 [OSI-027] (1000 nM)
- normalised response (MFM-223): 98.9%
- normalised response (MDA-MB-436): 91.9%
- normalised response (CAL-85-1): 93.6%
- normalised response (BT-474): 100%
- normalised response (DU-4475): 97.3%
- normalised response (MCF-10A): 106%
- normalised response (MDA-MB-231): 65%
- normalised response (HCC1599): 101%
- normalised response (Hs578T): 106%
- normalised response (BT-549): 102%
- normalised response (CAL-51): 104%
- normalised response (HDQ-P1): 108%
- normalised response (MDA-MB-453): 105%
- normalised response (CAL-148): 107%
- normalised response (CAL-120): 97.3%
- normalised response (MDA-MB-468): 119%

Structure (SMILES): C[C@]1(c2nc3c(C(N)=O)cccc3[nH]2)CCCN1 [Veliparib] (10000 nM)
- normalised response (MFM-223): 92.3%
- normalised response (MDA-MB-436): 112%
- normalised response (CAL-85-1): 87.9%
- normalised response (BT-474): 96.5%
- normalised response (DU-4475): 103%
- normalised response (MCF-10A): 107%
- normalised response (MDA-MB-231): 88.2%
- normalised response (HCC1599): 117%
- normalised response (Hs578T): 109%
- normalised response (HCC1937): 110%
- normalised response (BT-549): 106%
- normalised response (CAL-51): 86.6%
- normalised response (HDQ-P1): 90.5%
- normalised response (MDA-MB-453): 95.4%
- normalised response (HCC1143): 110%
- normalised response (CAL-120): 98.2%
- normalised response (MDA-MB-468): 125%

Structure (SMILES): CN1CCC(COc2cnc(-c3cccc(Cn4nc(-c5cccc(C#N)c5)ccc4=O)c3)nc2)CC1 (1000 nM)
- normalised response (MFM-223): 94%
- normalised response (MDA-MB-436): 112%
- normalised response (CAL-85-1): 85%
- normalised response (BT-474): 98.4%
- normalised response (DU-4475): 105%
- normalised response (MCF-10A): 88.3%
- normalised response (MDA-MB-231): 125%
- normalised response (HCC1599): 106%
- normalised response (HCC1937): 123%
- normalised response (BT-549): 115%
- normalised response (CAL-51): 99.9%
- normalised response (HDQ-P1): 95.5%
- normalised response (MDA-MB-453): 105%
- normalised response (CAL-148): 103%
- normalised response (HCC1143): 128%
- normalised response (CAL-120): 95.6%
- normalised response (MDA-MB-468): 140%

Structure (SMILES): N#CC[C@H](C1CCCC1)n1cc(-c2ncnc3[nH]ccc23)cn1 [Ruxolitinib] (10000 nM)
- normalised response (MFM-223): 94.1%
- normalised response (MDA-MB-436): 97.7%
- normalised response (CAL-85-1): 84.8%
- normalised response (BT-474): 98.6%
- normalised response (DU-4475): 98.2%
- normalised response (MCF-10A): 90%
- normalised response (MDA-MB-231): 93.4%
- normalised response (HCC1599): 96.7%
- normalised response (Hs578T): 118%
- normalised response (BT-549): 113%
- normalised response (CAL-51): 76.2%
- normalised response (MDA-MB-453): 98.4%
- normalised response (CAL-148): 95.1%
- normalised response (HCC1143): 98.3%
- normalised response (CAL-120): 98.7%
- normalised response (MDA-MB-468): 149%
